Laboratory results taken from patent US11744269B2, “Vegetable and fruit wash formulation and uses thereof” (priority 2020, dated 2023).

Key:
[1] = test system: Escherichia coli 8739; assay: Zone of Inhibition Assay for Escherichia coli 8739; type: cell-based
Description: (§1) The anti-microbial efficacy of VFW composition is evaluated by finding its zone of inhibition against Staphylococcus Aureus, Escherichia coli, Candida Albicans and Aspergillus Niger and compared with zone of inhibition of standard antibiotics known to be very potent in eliminating the subject microorganism.
(§2) The anti-microbial efficacy of VFW composition is evaluated by finding its zone of inhibition against Staphylococcus Aureus, Escherichia coli, Candida albicans and Aspergillus niger and compared with zone of inhibition of standard antibiotics known to be very potent in eliminating the subject microorganism.
20-30% of food-poisoning outbreaks linked to disease causing strains of the bacterium Escherichia coli are caused by people eating contaminated vegetables. The assay was performed for the culture of Escherichia coli 8739. Gentamicin is known to be very effective in eliminating this strain and is used as standard antibiotic.

[2] = test system: Staphylococcus aureus ATCC 6538; assay: Zone of Inhibition Assay for Staphylococcus aureus ATCC 6538; type: cell-based
Description: as §1, §2
Staphylococcus aureus is a gram-positive, round-shaped bacterium found as dominant genera on the surfaces of vegetables and fruits. The assay was performed for the culture of Staphylococcus aureus ATCC 6538. Ciplox is known to be very effective in eliminating this strain. It was used as standard antibiotic.

[3] = test system: Candida albicans 10231; assay: Zone of Inhibition Assay for Candida albicans 10231; type: cell-based
Description: Candida albicans is opportunistic pathogenic yeast found to have growth on fruits rich in sugar content like bananas, dates, grapes, mango, and dried fruit. The zone of inhibition assay is performed for the culture of Candida albicans 10231.

[4] = test system: crown rot disease in Banana; assay: Crown rotting evaluation of bananas washed in industrial set-up (banana plantation); details: bananas soaked 30 minutes maximum in 2% VFW solution in water or NaClO solution in water
Description: As crown rot progresses, fruits like banana begins to soften and blacken and induces early ripening of fruits.
The crown-rot and fruit blackening studies are conducted to determine the efficacy of the Vegetable and Fruit Wash to protect the fruits from the so-called disease and also from premature ripening. This study is also conducted to determine the efficacy of the present invention in prolonging the life of the fruits, i.e. in increasing the shelf life of the fruits.
A batch of bananas is washed using 2% of Vegetable and Fruit Wash solution in water. The bananas are soaked in the solution for 30 minutes maximum, rinsed, dried and packed and are observed after 2 weeks of washing and after 4 weeks of washing post-delivery and ripening. Another batch of bananas are washed using Sodium Hypochlorite (NaClO) solution in water as per the industry standard washing procedure. The bananas are soaked in the solution for 30 minutes maximum, rinsed, dried and packed. They are observed after 2 weeks of washing and after 4 weeks of washing post delivery and ripening.

Gentamicin
Zone of Inhibition (mm) [1]: 24.54 mm

O=C(O)c1cn(C2CC2)c2cc(N3CCNCC3)c(F)cc2c1=O [Ciplox]
Zone of Inhibition (mm) [2]: 27.64 mm

Zinc pyrithione [ZPTO]
Zone of Inhibition (mm) [3]: 24.37 mm

OCl [NaClO, Sodium Hypochlorite]
Number of Rotten Crowns 2 weeks after Washing [4]: 1
Number of Rotten Crowns 4 weeks after Washing [4]: 3
Number of Rotten Crowns after Ripening [4]: 5
